Test results published in patent publication US9586914B2, “Modulators of C3a receptors” (THE UNIVERSITY OF QUEENSLAND, priority 2011, dated 2017).
Entries after “also recorded” stand apart in the source; their conditions may differ. Where two headings read alike, the source gives them in different places.

Experiments:
[1] = test system: IL1B, IL8, CCL3, EGR1, FOSB and TNF gene expression in HMDMs; test: Regulation of inflammatory genes in HMDM (qRT-PCR); format: cell-based, human; conditions: for Induction of gene expression of IL1B, IL8, CCL3, EGR1, FOSB and TNF: HMDMs, 300 nM, 30 minutes, qRT-PCR, fold change from control
Source text: Human monocyte-derived macrophages (HMDMS) were isolated from buffy coat of anonymous donors provided by the Australian Red Cross Blood Service at Kelvin Grove, Queensland, Australia. White blood cells were separated from other blood components into different layers using Ficoll-Paque Plus Density Centrifugation (GE Healthcare Bio-Science, Uppsala, Sweden) according to manufacturer's instruction. The isolated white blood cells were repeatedly washed with ice-cold water to remove contaminating erythrocytes. CD14^+ monocytes were positively selected from white blood cells using CD14^+ Macs Magnetic Beads (Miltenyi biotech, Auburn, Calif., USA) after successive magnetic sorting and washings. CD14^+ monocytes (1.5×10^6 cells/mL) were seeded in 10 mL of IMDM supplemented with 10% fetal calf serum (FBS), 10 U/mL streptomycin, 10 U/mL penicillin and 2 mmol L-glutamine (Invitrogen). To generate HMDMS, […] of recombinant human macrophage colony stimulating factor (M-CSF) (Peprotech Inc., rocky Hill, N.J., USA) was added for differentiation. HMDMS were maintained at 37° C. in a humidified incubator with 5% CO2 for a week to fully differentiate. At day 7, the adhered HMDMS were harvested by gentle scraping in saline solution.
HMDMs (2×10^6) in 2 mL of IMDM medium were transferred into each well on a 6-well plate. The cells were left to incubate for 6 h to allow adhesion before being serum starved in serum free IMDM to reduce background noise of the C3a treatment. In the time response experiment, cells were treated with 10 nM of C3a or agonist (compound 8 or 64) for 0.5, 1, 2 or 6 h. In concentration response experiments, cells were treated with 1, 10, 100 or 300 nM for 1 h. To prepare the samples for the microarray experiments, cells were treated with agonist at 100-300 nM for 30 min or 1 h in the absence or presence of the antagonist (e.g. SB-290157 or antagonists). […] Cells were washed with saline solution at the end of each treatment before the RNA extraction step.
Total RNA was extracted from cells using RNeasy Mini Plus kit (Qiagen, USA) according to the manufacturer's instructions. The concentration of the RNA was determined by measuring absorbance at λ=260/280 […] on a nanodrop spectrophotometer (Thermo Scientific), according to the manufacturer's instructions.
Total RNA (2-5 μg) was reverse transcribed with Superscript III (Invitrogen, USA) using random oligo dT primer. Reagents were incubated (50 min, 50° C.; then 10 min, 70° C.) in thermal cyclers (Bio-Rad) to complete the reaction, cDNA samples were stored at −20° C. until further use. All RNA work was performed on ice (4° C.) to prevent degradation of the RNA samples.
cDNA (0.5 μg) samples were prepared with 5 μL SYBR® Green PCR master mix (Applied Biosystems™, CA, USA), 2 μL relevant primers (2 μM) and 1 μL dH2O before being analysed using an ABI 7900HT Fast Real-Time PCR System (Applied Biosystems™, CA, USA) according to the manufacturer's specifications. Fluorescence data was collected during the extension phase (60° C.). The concentration response data for each sample was then normalised against the same data for control housekeeping gene, (18S) to quantify and generate gene expression data. All samples were done in at least duplicate. Primers were designed using the Primer-BLAST software (National Center for Biotechnology Information, USA). Primers contained, amplicons that cross exon-exon boundaries to prevent amplification of genomic DNA. […]

C3a receptor (C3aR) = molecular target: T1, C3a receptor (C3aR) (Homo sapiens, UniProt Q16581); test: Competitive binding with [^125I]-C3a in HMDM; conditions: for IC50 / pIC50 ± SEM / Receptor Binding Affinity pIC50 ± SE: HMDM
T1 construct: peripheral blood mononuclear cells were isolated from buffy coat (obtained from Australian Red Cross Blood Service, Kelvin Grove); endogenous in cells; host or cells: primary human monocyte-derived macrophages (HMDM) differentiated from CD14+ monocytes of donor buffy coat
T1 sequence (Q16581 1-482): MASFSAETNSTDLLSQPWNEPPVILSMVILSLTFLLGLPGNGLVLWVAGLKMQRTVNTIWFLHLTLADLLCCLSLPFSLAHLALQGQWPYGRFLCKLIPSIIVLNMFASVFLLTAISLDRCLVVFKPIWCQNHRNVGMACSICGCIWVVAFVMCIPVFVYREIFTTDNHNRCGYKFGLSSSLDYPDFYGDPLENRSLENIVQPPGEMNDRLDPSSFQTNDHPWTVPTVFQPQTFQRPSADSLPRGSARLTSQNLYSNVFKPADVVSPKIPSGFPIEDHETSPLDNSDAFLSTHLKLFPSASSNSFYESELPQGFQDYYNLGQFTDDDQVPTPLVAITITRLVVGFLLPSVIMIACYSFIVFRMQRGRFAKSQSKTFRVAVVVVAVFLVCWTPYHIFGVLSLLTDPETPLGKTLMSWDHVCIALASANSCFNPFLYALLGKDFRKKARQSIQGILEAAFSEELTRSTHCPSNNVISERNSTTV
Summary of the method: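 IC50 values are geometric means, with −log IC50 computed per experiment and given as arithmetic mean ± SE. Cells were CD14+ monocytes from buffy-coat PBMC, differentiated to macrophages and used on day 7. Unbound label was removed by GF/B filtration with 3 cold washes in 50 mM Tris-HCl pH 7.4.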

C3aR [2] = molecular target: T2, C3aR (Homo sapiens, UniProt Q16581); test: Calcium mobilization assay in HMDM (agonist/antagonist activity); format: cell-based
T2 construct: peripheral blood mononuclear cells were isolated from buffy coat (obtained from Australian Red Cross Blood Service, Kelvin Grove); endogenous in cells; host or cells: primary human monocyte-derived macrophages (HMDM) differentiated from CD14+ monocytes of donor buffy coat
T2 sequence (Q16581 1-482): T1 sequence (Q16581 1-482)
Summary of the method: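 Human monocyte-derived macrophages, 5×10^4 cells/well, loaded 1 h at 37 °C with 4 μM Fluo-3 in HBSS/HEPES/probenecid buffer, pH 7.4. Agonist mode: calcium release read 300 s; antagonist mode: 900 s compound preincubation then agonist, read 300 s (ex 485/em 520 nm); compared with hC3a.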

C3aR [3] = molecular target: T2, C3aR; test: Desensitization experiments (Ca^2+ efflux after hC3a desensitization); format: cell-based; conditions: hC3a 3 μM first; second addition of 1 μM compound; HMDM
Protocol: Desensitization experiments were used to measure the selectivity of various ligands for C3aR, since this can help to clarify whether the non-peptidic ligands bind selectively to C3aR over other GPCRs that signal through intracellular calcium release.
The hC3a (3 μM) was administered to human monocyte derived macrophage cells, which produces an efflux of intracellular Ca^2+ that dissipates after 4-5 mins (FIGS. 4A and 4B). A second addition of 3 μM hC3a after 5 mins has no effect, due to desensitization of the receptor through either receptor (C3a receptor) phosphorylation or receptor internalization from the cell surface.

[4] = Table 8, read-out: Receptor Binding Affinity ^125I IC50
[5] = Table 10, HMDM, read-out: Agonist Activity EC50
[6] = Table 6, competitive binding with [^125I]-C3a, read-out: IC50 (converted)
[7] = Table 6, competitive binding with [^125I]-C3a, read-out: pIC50 ± SEM (converted)
[8] = Table 11, [^125I]-C3a, read-out: Receptor Binding Affinity IC50
[9] = Table 11, [^125I]-C3a, read-out: Receptor Binding Affinity pIC50 ± SE (converted)
[10] = Table 11, Ca^2+ mobilisation, HMDM, read-out: Apparent Antagonist Activity EC50
[11] = quoted in text of Example 98, read-out: EC50
[12] = Table 6, competitive binding with [^125I]-C3a
[13] = Table 9, Ca^2+ mobilization, HMDM
[14] = Table 11, Ca^2+ mobilisation, HMDM
[15] = Table 9, Ca^2+ mobilization, HMDM, read-out: EC50

| Compound | IC50 (C3a receptor (C3aR); [4]) [nM] | Ca^2+ efflux on addition after first desensitization with hC3a (selectivity for C3aR over other GPCRs) (C3aR [3]) | IC50 (C3a receptor (C3aR); [6]) [nM] | IC50 (C3a receptor (C3aR); [8]) [nM] | EC50 (C3aR [2]; [10]) [nM] | EC50 (C3aR [2]; [11]) [nM] | pIC50 ± SEM (C3a receptor (C3aR); [12]) | pEC50 ± SEM (C3aR [2]; [13]) | also measured |
| --- | --- | --- | --- | --- | --- | --- | --- | --- | --- |
| Cc1nc(C(c2ccccc2)c2ccccc2)[nH]c1C(=O)N[C@@H](CCCNC(=N)N)C(=O)O [Compound 64, 2-Diphenylmethyl-4-methyl imidazole-5-carboxyl-Arg-OH] | 7.6 |  |  |  |  |  |  |  | Induction of gene expression of IL1B, IL8, CCL3, EGR1, FOSB and TNF [1]: significantly induce gene expression; also recorded: induced expression of inflammatory genes; -Log IC50 (C3a receptor (C3aR); Table 14, binding affinity for C3aR on HMDM): 8.0; EC50 (C3aR [2]; [5]): 24 nM; Function at C3aR (agonist / antagonist) (C3aR [2]; text of Example 100): potent full agonist |
| CC(C)C[C@H](NC(=O)OC(C)(C)C)c1nc(C(=O)NC(CCCNC(=N)N)C(=O)O)co1 (stereo partly drawn) [Compound 1, Boc-leucine oxazole-arginine-OH] |  | did not produce calcium efflux | 20 | 20 | 19 | 19 |  |  | IC50 (C3a receptor (C3aR); [7]): 19.5 nM; IC50 (C3a receptor (C3aR); [9]): 19.5 nM; EC50 (C3aR [2]; Table 9, Ca^2+ mobilization, HMDM, read-out: pEC50 ± SEM (converted)): 19.1 nM |
| NC(N)=NCCC[C@H](NC(=O)COCC(c1ccccc1)c1ccccc1)C(=O)O [SB290157, reference compound] | 11 |  | 38 | 38 |  |  | 7.42 ± 0.06 | 5.52 ± 0.08 | Effect of antagonist on gene induction by C3a or compounds 8 or 64 ([1]; SB290157 5 μM, 30 mins preincubation): prevented; Receptor Binding Affinity pIC50 ± SE (C3a receptor (C3aR); Table 11, [^125I]-C3a): 7.42 ± 0.06; IC50 (C3aR [2]; Table 9, antagonist SB290157, Ca^2+ mobilization, HMDM, read-out: IC50 (printed in the EC50 (nM) column)): 3050 nM; IC50 (C3aR [2]; Table 10, HMDM, read-out: Antagonist Activity Ca^2+ IC50): 1300 nM; Apparent Antagonist Activity pEC50 ± SE (symbol) (C3aR [2]; Table 11): * (The compounds show no agonist activity in calcium mobilisation assays up to 100 μM.); Apparent Antagonist Activity pIC50 ± SE (C3aR [2]; [14]): 5.6 ± 0.09; IC50 (C3aR [2]; Table 11, Ca^2+ mobilisation, HMDM, read-out: Apparent Antagonist Activity IC50): 2700 nM |
| CC[C@H](C)[C@H](NC(=O)OC(C)(C)C)c1nc(C(=O)N[C@@H](CCCNC(=N)N)C(=O)O)co1 [Compound 2] |  | did not produce calcium efflux | 30 |  |  | 27 | 7.53 ± 0.10 | 7.57 ± 0.11 |  |
| hC3a: human complement protein C3a, natural ligand of the C3a receptor; unlabelled competitor and reference agonist | 0.07 |  | 0.23 | 0.23 | 65 |  | 9.64 ± 0.04 | 7.19 ± 0.06 | Induction of gene expression of IL1B, IL8, CCL3, EGR1, FOSB and TNF [1]: significantly induce gene expression; Receptor Binding Affinity pIC50 ± SE (C3a receptor (C3aR); Table 11, [^125I]-C3a): 9.64 ± 0.04; EC50 (C3aR [2]; [15]): 65 nM; EC50 (C3aR [2]; [5]): 45000 nM; Apparent Antagonist Activity pEC50 ± SE (C3aR [2]; [14]): 7.2 ± 0.06 |
| pertussis toxin [reference compound] |  |  |  |  |  |  |  |  | Effect of pertussis toxin pre-treatment on gene induction by C3a or compounds 8 or 64 ([1]; 200 ng/mL pertussis toxin overnight, then 300 nM agonist for 30 minutes (not shown)): ablated |
| CC[C@H](C)[C@H](NC(=O)OC(C)(C)C)c1nc(C(=O)N[C@@H](CCCNC(=N)N)C(=O)O)c(C)o1 [Compound 25, Boc-isoleucine-5-methyl-oxazole-arginine-OH] |  | caused a second efflux of intracellular Ca^2+ |  | 15 | 45 |  |  |  | IC50 (C3a receptor (C3aR); [7]): 13.8 nM; IC50 (C3a receptor (C3aR); [9]): 13.8 nM; EC50 (C3aR [2]; [15]): 45 nM; EC50 (C3aR [2]; Table 11, Ca^2+ mobilisation, HMDM, read-out: Apparent Antagonist Activity pEC50 ± SE (converted)): 39.8 nM |
| CC[C@H](C)[C@H](NC(=O)CCC(=O)c1ccc(-c2ccccc2)cc1)c1nc(C(=O)N[C@@H](CCCNC(=N)N)C(=O)O)co1 [Compound 16, 4-(biphenyl-4-yl)-4-oxobutanoic acid-Isoleucine-Oxazole-Arginine-OH] |  | did not produce calcium efflux | 155 |  |  | 8 | 6.81 ± 0.07 | 8.12 ± 0.21 |  |
